Laboratory results from PubChem BioAssay AID493250 (Broad Institute, 2011).
Activity calls are given as the source filed them.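 Rule for the calls: active = signal decrease with fitted half-maximal dose at or below ten times the highest valid tested dose; inconclusive = poor fit, or flat fit at 30 to 70% inhibition; inactive = the rest.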

Target: Zinc finger protein mex-5 (Caenorhabditis elegans) (UniProt Q9XUB2)
Test: MEX-5 zinc finger-RNA interaction blockers – biochemical, fluorescence polarization, C. elegans, cherry-picked, round 3, dose response (AID 493250)
Conditions: purified MEX-5-MBP, FITC-TCR2 RNA fluorescence polarization; for activity change, negative = inhibition: at 10 µM (top of the series)

Sequence of Zinc finger protein mex-5 (Caenorhabditis elegans) (Q9XUB2 whole entry, looked up): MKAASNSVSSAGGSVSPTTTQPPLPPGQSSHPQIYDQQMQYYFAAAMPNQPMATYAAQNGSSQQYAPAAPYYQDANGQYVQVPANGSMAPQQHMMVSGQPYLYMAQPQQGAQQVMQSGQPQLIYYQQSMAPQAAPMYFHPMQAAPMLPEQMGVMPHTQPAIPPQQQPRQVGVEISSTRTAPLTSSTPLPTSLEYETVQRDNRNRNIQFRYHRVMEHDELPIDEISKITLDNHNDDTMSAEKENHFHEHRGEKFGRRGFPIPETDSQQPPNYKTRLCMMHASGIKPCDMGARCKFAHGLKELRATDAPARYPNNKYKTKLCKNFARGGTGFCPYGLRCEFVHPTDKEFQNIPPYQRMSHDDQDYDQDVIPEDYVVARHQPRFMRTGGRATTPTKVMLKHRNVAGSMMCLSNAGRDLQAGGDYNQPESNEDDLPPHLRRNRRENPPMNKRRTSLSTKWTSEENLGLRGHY

Structure (SMILES): COCc1cc(C)nc(N/N=C/c2ccc(-c3cc(C(=O)O)ccc3Cl)o2)c1C#N
- activity change, negative = inhibition: inactive

Structure (SMILES): COc1ccccc1/C=C/C=C1\Oc2c(ccc(O)c2CN(C)C)C1=O
- AC50: 2.28 µM

Structure (SMILES): CCCNc1nc2ccccc2n2c(C)nnc12
- activity change, negative = inhibition: inactive

Structure (SMILES): Cc1ccc(C(=O)N/C(=C\c2ccc(-c3ccc(Cl)cc3)o2)C(=O)NCCCN(C)C)cc1
- activity change, negative = inhibition: inactive

Structure (SMILES): COc1cc2c(cc1OC)-c1c(OC)c(OC)cc3c1C(C2)N(C)CC3 (stereo not drawn)
- activity change, negative = inhibition: inactive

Structure (SMILES): Cc1cc([N+](=O)[O-])nn1CC(=O)NNC(=S)Nc1ccc(F)cc1
- activity change, negative = inhibition: inactive

Structure (SMILES): COc1ccc(OC)c(-n2c(-c3cc(-c4ccco4)[nH]n3)n[nH]c2=S)c1
- activity change, negative = inhibition: inactive

Structure (SMILES): COc1ccc(C(=O)NNC(=O)c2ccc3ccccc3c2O)cc1
- activity change, negative = inhibition: inactive

Structure (SMILES): CN1/C(=C\C=C(/C#N)C(=O)Nc2ccccc2F)C(C)(C)c2ccccc21
- activity change, negative = inhibition: inactive

Structure (SMILES): CCS(=O)(=O)C1=NN2C(=N)/C(=C\c3ccc(SCc4ccco4)o3)C(=O)N=C2S1
- AC50: 10.4 µM

Structure (SMILES): CCN(CC)c1ccc(N2C(=O)c3ccccc3C2=O)cc1
- activity change, negative = inhibition: inactive

Structure (SMILES): Oc1cccc(NC(=S)N=Nc2c(O)[nH]c3ccccc23)c1
- activity change, negative = inhibition: inactive

Structure (SMILES): C=CCn1c(=O)[nH]c2nc3cc(N=CN(C)C)c(C)cc3nc2c1=O
- AC50: 5.73 µM

Structure (SMILES): CCN1C(=O)c2cccc3c(NC(=O)C4CCCCC4)ccc1c23
- AC50: 6.96 µM

Structure (SMILES): O=C(N/N=C/c1c(O)ccc2ccccc12)c1ccc[n+](CCO)c1
- activity change, negative = inhibition: inactive

Structure (SMILES): COc1c(OC2OC(C(=O)O)C(O)C(O)C2O)cc(O)c2c(=O)cc(-c3ccccc3)oc12 (stereo not drawn)
- activity change, negative = inhibition: inactive

Structure (SMILES): COc1ccc(NC(=S)NNC(=O)C(C)n2nc(C)c([N+](=O)[O-])c2C)cc1 (stereo not drawn)
- activity change, negative = inhibition: inactive

Structure (SMILES): CCCn1c(=N)c(C(=O)NC2CCCC2)cc2c(=O)n3cccc(C)c3nc21
- activity change, negative = inhibition: inactive

Structure (SMILES): CCN(CC)Cc1c(O)ccc2c1O/C(=C\C=C\c1ccccc1)C2=O
- AC50: 4.38 µM

Structure (SMILES): O=C(O)CC1S/C(=N/N=C/c2ccc(-c3ccccc3[N+](=O)[O-])o2)NC1=O (stereo not drawn)
- activity change, negative = inhibition: inactive

Structure (SMILES): CC1CN2C(c3ccc([N+](=O)[O-])cc3)=CSC2=N1 (stereo not drawn)
- activity change, negative = inhibition: inactive

Structure (SMILES): COC(=O)c1ccc(CC(=O)c2c(C)cc(O)cc2O)o1
- activity change, negative = inhibition: inactive

Structure (SMILES): COc1ccc(N=Nc2c(C)[nH][nH]c2=O)cc1
- activity change, negative = inhibition: inactive

Structure (SMILES): COc1ccc(-c2cn[nH]c2-c2ccc(OCC(=O)NN)cc2O)cc1
- activity change, negative = inhibition: inactive

Structure (SMILES): CC(C)(C)CC(C)(C)NCC(O)COc1ccc2c(c1)CCC2 (stereo not drawn)
- activity change, negative = inhibition: inactive

Structure (SMILES): O=C(O)c1[nH]c2ccccc2c1C(c1cc(Br)ccc1O)c1c(C(=O)O)[nH]c2ccccc12
- activity change, negative = inhibition: inactive

Structure (SMILES): O=C(O)CSc1ncnc2nc[nH]c12
- activity change, negative = inhibition: inactive

Structure (SMILES): O=c1[nH]cnc2c1C(c1ccc(Cl)cc1)c1c(nc[nH]c1=O)O2
- activity change, negative = inhibition: inactive

Structure (SMILES): N=C(N)N=Nc1c(O)[nH]c2ccc(Br)cc12
- activity change, negative = inhibition: inactive

Structure (SMILES): Cc1c(NC(=O)c2ccc(=O)oc2)c(=O)n(-c2ccccc2)n1C
- activity change, negative = inhibition: inactive

Structure (SMILES): COc1ccc(-c2cn[nH]c2-c2ccc(O)cc2O)cc1OC
- activity change, negative = inhibition: inactive

Structure (SMILES): OCCCc1nc2n(n1)C(c1ccccc1Cl)C=C(c1cccs1)N2 (stereo not drawn)
- AC50: 10.1 µM

Structure (SMILES): N#C/C(=N\Nc1cccc(C(F)(F)F)c1)C(=O)c1ccsc1
- activity change, negative = inhibition: inactive

Structure (SMILES): COc1cc(/C=N/NC(=O)CNS(=O)(=O)c2ccc(C)cc2)cc(OC)c1OC
- activity change, negative = inhibition: inactive

Structure (SMILES): COc1ccc(N(CCC#N)C(=O)/C(C#N)=C\c2cccs2)cc1
- activity change, negative = inhibition: inactive

Structure (SMILES): Cc1ccc(C(=O)N/C(=C\c2ccc(-c3cccc([N+](=O)[O-])c3)o2)C(=O)NCCCN(C)C)cc1
- activity change, negative = inhibition: inactive

Structure (SMILES): CN1CCCc2cc(C=O)ccc21
- activity change, negative = inhibition: inactive

Structure (SMILES): COc1ccc(OC)c(/C=C/C(=O)Nc2ccc(OC)nc2)c1
- activity change, negative = inhibition: inactive

Structure (SMILES): O=C(Nc1ccc(OCc2ccccc2)cc1)Nc1cccnc1
- activity change, negative = inhibition: inactive

Structure (SMILES): O=C(N/N=C/c1cccnc1)c1ccccc1
- activity change, negative = inhibition: inactive

Structure (SMILES): CN1CN(C)c2ccc([N+](=O)[O-])c3cccc1c23
- activity change, negative = inhibition: inactive

Structure (SMILES): CCC(COC(C)=O)Nc1nc2c([nH]1)c(=O)n(C)c(=O)n2C (stereo not drawn)
- activity change, negative = inhibition: inactive

Structure (SMILES): COc1cccc(NCc2cc(=O)oc3cc(C)c(C(C)C)cc23)c1
- activity change, negative = inhibition: inactive

Structure (SMILES): O=C(O)c1ccc(NCc2cccnc2)cc1
- activity change, negative = inhibition: inactive

Structure (SMILES): CCN=c1scc(-c2ccco2)n1/N=C/c1ccc(O)cc1
- activity change, negative = inhibition: inactive

Structure (SMILES): Cc1cc(C)c2ccc(=S)[nH]c2n1
- activity change, negative = inhibition: inactive

Structure (SMILES): Cc1cccc(C(=O)NNC(=O)c2csc(N3CCOCC3)n2)c1C
- activity change, negative = inhibition: inactive

Structure (SMILES): Cc1ccc(O)c(-c2cc(C(=O)Nc3ccc(S(=O)(=O)Nc4nc(C)cc(C)n4)cc3)[nH]n2)c1
- activity change, negative = inhibition: inactive

Structure (SMILES): COC(=O)CCC(=O)NC(=S)Nc1sc(C)c(C)c1C(N)=O
- activity change, negative = inhibition: inactive

Structure (SMILES): CC(=O)O[C@@H]1[C@@H](O)[C@@H](O)[C@H](Oc2c(-c3ccc(O)cc3)oc3c(CC=C(C)C)c(O)cc(O)c3c2=O)O[C@H]1C
- activity change, negative = inhibition: inactive

Structure (SMILES): CCc1ccc(S(=O)(=O)Nc2ccc(O)c3c(=O)cc(-c4ccccc4Cl)oc23)cc1
- activity change, negative = inhibition: inactive

Structure (SMILES): Nc1ccccc1C(=O)NNC(=O)C(=O)/C=C(\O)c1ccccc1
- activity change, negative = inhibition: inactive

Structure (SMILES): N#Cc1cc2c(=O)n3ccccc3nc2n(CCCN2CCOCC2)c1=O
- activity change, negative = inhibition: inactive

Structure (SMILES): COc1ccccc1NCc1cc(=O)oc2c(C)c(O)ccc12
- activity change, negative = inhibition: inactive

Structure (SMILES): COc1ccc(/C=C2\CCCc3c2nc2ccc(C)cc2c3C(=O)O)cc1O
- activity change, negative = inhibition: inactive

Structure (SMILES): FC(F)(F)c1ccc(Cl)c(-n2c(-c3cc(-c4ccco4)[nH]n3)n[nH]c2=S)c1
- activity change, negative = inhibition: inactive

Structure (SMILES): Cc1nn(C(C)C(=O)NNC(=S)Nc2ccc(Cl)cc2)c(C)c1[N+](=O)[O-] (stereo not drawn)
- activity change, negative = inhibition: inactive

Structure (SMILES): O=C1N=C(N2C=CC(=C3C=CNC=C3)C=C2)/C(=C/N=NC(=O)c2ccccc2)S1
- activity change, negative = inhibition: inactive

Structure (SMILES): CC(=O)N1CCc2c(sc(NC(=O)C3CCCN3S(=O)(=O)c3cccs3)c2C#N)C1 (stereo not drawn)
- activity change, negative = inhibition: inactive

Structure (SMILES): O=C(NN=C1C2CC3CC1CC(Cl)(C3)C2)c1ccccn1
- activity change, negative = inhibition: inactive

Structure (SMILES): COc1ccc(Cl)cc1CN1CCN(c2nc(C)cc(C)c2C#N)CC1
- AC50: 9.41 µM

Structure (SMILES): COc1ccc(OC)c(/C=N/NC(=O)c2ccc(=O)[nH]n2)c1
- activity change, negative = inhibition: inactive

Structure (SMILES): COc1ccc(NCc2cccnc2)cc1
- activity change, negative = inhibition: inactive

Structure (SMILES): NC(=O)C(=O)N/N=C1\CCc2ccccc21
- activity change, negative = inhibition: inactive

Structure (SMILES): O=C(O)c1ccc(N2Cc3ccccc3C2)cc1O
- activity change, negative = inhibition: inactive

Structure (SMILES): Oc1ccc(C2C=C(c3ccc(F)cc3)Nc3ncnn32)cc1 (stereo not drawn)
- activity change, negative = inhibition: inactive

Structure (SMILES): COc1cc(/C=C2/C(C)=C(C#N)c3nc(N)c(C#N)c(C)c32)ccc1OCC(=O)O
- activity change, negative = inhibition: inactive

Structure (SMILES): CN(N)c1ccc2c(C(F)(F)F)cc(C(F)(F)F)nc2n1
- activity change, negative = inhibition: inactive

Structure (SMILES): COC(=O)C1=C(C)OC(N)=C(C#N)C1c1cc(OC)c(OCC(N)=O)cc1Cl (stereo not drawn)
- activity change, negative = inhibition: inactive

Structure (SMILES): C/C=C(\C)CN1CCC(n2nccc2NC(=O)CCCc2ccccc2)CC1
- activity change, negative = inhibition: inactive

Structure (SMILES): O=C(O)c1ccc2c(c1)ncn2C1CCCCC1
- activity change, negative = inhibition: inactive

Structure (SMILES): NC(=S)N=Nc1c(O)[nH]c2ccccc12
- activity change, negative = inhibition: inactive

Structure (SMILES): COc1ccc(C[C@@H]2c3cc(O)c(OC)cc3CCN2C)cc1O
- activity change, negative = inhibition: inactive

Structure (SMILES): O=c1c(OC2OC(CO)C(O)C(O)C2O)c(-c2ccc(O)c(O)c2)oc2cc(O)cc(O)c12 (stereo not drawn)
- activity change, negative = inhibition: inactive

Structure (SMILES): CC(=O)Nc1ccc(/C=N/NC(=O)CNS(=O)(=O)c2ccccc2)cc1
- activity change, negative = inhibition: inactive

Structure (SMILES): COc1ccc(C2c3sc(=O)[nH]c3SCC2C(N)=O)cc1 (stereo not drawn)
- activity change, negative = inhibition: inactive

Structure (SMILES): NC1=C([N+](=O)[O-])C(c2ccc3c(c2)OCO3)C2=C(CCCC2=O)O1 (stereo not drawn)
- activity change, negative = inhibition: inactive

Structure (SMILES): C#CCOCCOCCOCCNc1nc(N2CCN(C(=O)[C@H]([C@@H](C)O)n3cc(CCCCN)nn3)CC2)nc(N2CCN(C(=O)[C@H](C)n3cc(CCCN=C(N)N)nn3)CC2)n1
- activity change, negative = inhibition: inactive

Structure (SMILES): CNC(=O)c1sc(N2N=C3/C(=C/c4ccccc4)CCCC3C2c2ccccc2)nc1C (stereo not drawn)
- AC50: 7.59 µM

Structure (SMILES): CCC(=O)NCCc1nc2ccccc2n1Cc1ccccc1
- activity change, negative = inhibition: inactive

Structure (SMILES): CC1=CC2=NC(=O)/C(=C\c3ccc(-c4cccc(Cl)c4)o3)C(=N)N2O1
- activity change, negative = inhibition: inactive

Structure (SMILES): CSc1ccc(C(c2c(C(=O)O)[nH]c3ccccc23)c2c(C(=O)O)[nH]c3ccccc23)cc1
- activity change, negative = inhibition: inactive

Structure (SMILES): Cc1nc2nc(-c3ccc(Cl)cc3)cn2nc1C
- AC50: 9.89 µM

Structure (SMILES): O=C(NC1CCSc2ccccc21)c1ccc([N+](=O)[O-])cc1 (stereo not drawn)
- activity change, negative = inhibition: inactive

Structure (SMILES): COc1cc(/C=C/c2nc(-c3ccccc3O)n[nH]2)cc(OC)c1OC
- activity change, negative = inhibition: inactive

Structure (SMILES): CCOc1cc(/C=N/NC(=O)N/N=C/c2ccc(O)c(OCC)c2)ccc1O
- activity change, negative = inhibition: inactive

Structure (SMILES): COc1ccc(NC(=O)c2cccs2)cn1
- activity change, negative = inhibition: inactive

Structure (SMILES): Nc1c(C(=O)Nc2cccc(Cl)c2Cl)sc2nc(-c3cccnc3)ccc12
- activity change, negative = inhibition: inactive

Structure (SMILES): CCNC(=S)NNC(=O)c1ccccn1
- activity change, negative = inhibition: inactive

Structure (SMILES): Nc1nonc1C(=O)N/N=C/c1cc(Br)ccc1O
- activity change, negative = inhibition: inactive

Structure (SMILES): CC(=O)N1C(=O)/C(=C2\SC(=S)N(NC(=O)c3ccc(O)cc3)C2=O)c2ccccc21
- activity change, negative = inhibition: inactive

Structure (SMILES): Nc1nc(N)c2[nH]cnc2n1
- activity change, negative = inhibition: inactive

Structure (SMILES): COC(=O)c1cc(NC(=O)c2ccccc2)c(=O)oc1C
- activity change, negative = inhibition: inactive
